Assay results from ChEMBL document CHEMBL1121768, “Synthesis and platelet aggregation inhibitory activity of 4,5-bis(aryl)-2-substituted-thiazoles” (J Med Chem, 1981).
In brackets after ≈: the same amount, converted by molar mass.

Legend:
Format in all cases: functional
Cavia porcellus [1] = test: Percent inhibition of platelet aggregation following oral administration to guinea pigs at a dose of 5 mg/kg
Cavia porcellus [2] = species: Cavia porcellus; test: In vitro inhibition of collagen-induced platelet aggregation in guinea pig platelet rich plasma
Cavia porcellus [3] = test: Percent inhibition of platelet aggregation following oral administration to guinea pigs at a dose of 10 mg/kg
Homo sapiens = species: Homo sapiens; test: In vitro inhibition of collagen-induced platelet aggregation in human platelet rich plasma
Cavia porcellus [4] = test: Percent inhibition of platelet aggregation following oral administration to guinea pigs at a dose of 1 mg/kg
Cavia porcellus [5] = test: Percent inhibition of platelet aggregation following oral administration to guinea pigs at a dose of 0.1 mg/kg
Cavia porcellus [6] = test: Percent inhibition of platelet aggregation at 4 hours following oral administration to guinea pigs at 5 mg/kg
Cavia porcellus [7] = test: Percent inhibition of platelet aggregation at 2 hours following oral administration to guinea pigs at 5 mg/kg
Cavia porcellus [8] = test: Percent inhibition of platelet aggregation at 24 hours following oral administration to guinea pigs at 5 mg/kg
Cavia porcellus [9] = test: Percent inhibition of platelet aggregation at 12 hours following oral administration to guinea pigs at 5 mg/kg
Cavia porcellus [10] = test: Percent inhibition of platelet aggregation at 8 hours following oral administration to guinea pigs at 5 mg/kg
Cavia porcellus [11] = test: Percent inhibition of platelet aggregation following oral administration to guinea pigs at a dose of 0.5 mg/kg
Cavia porcellus [12] = test: Percent inhibition of platelet aggregation at 16 hours following oral administration to guinea pigs at 5 mg/kg
Cavia porcellus [13] = test: Percent inhibition of platelet aggregation at 0 hours following oral administration to guinea pigs at 5 mg/kg

| Structure (SMILES) | inhibition in vivo at 5 mg/kg (Cavia porcellus [1]) [%] | IC50 (Cavia porcellus [2]) [µg/mL] | inhibition in vivo at 10 mg/kg (Cavia porcellus [3]) [%] | IC50 (Homo sapiens) [µg/mL] | inhibition in vivo at 1 mg/kg (Cavia porcellus [4]) [%] | also measured |
| --- | --- | --- | --- | --- | --- | --- |
| COC(=O)C(C)(C)c1nc(-c2ccc(OC)cc2)c(-c2ccc(OC)cc2)s1 | 100 | 0.01 (≈ 0.0252 µM) | 100 | 0.0032 (≈ 0.00805 µM) | 27 |  |
| CC(C(=O)O)c1ccc(-c2ccccc2)c(F)c1 (centres undefined) [FLURBIPROFEN] |  | 0.32 (≈ 1.31 µM) |  | 0.32 (≈ 1.31 µM) |  |  |
| COc1ccc(-c2ncsc2-c2ccc(OC)cc2)cc1 |  |  |  | 0.032 (≈ 0.108 µM) |  |  |
| COc1ccc(-c2nc(C(C)C)sc2-c2ccc(OC)cc2)cc1 | 85 | 0.01 (≈ 0.0295 µM) | 100 | 0.0032 (≈ 0.00943 µM) | 6 |  |
| FC(F)(F)c1nc(-c2ccc(Cl)cc2)c(-c2ccc(Cl)cc2)s1 |  |  |  | 0.032 (≈ 0.0855 µM) |  |  |
| COc1ccc(-c2nc(C(C)(C)CO)sc2-c2ccc(OC)cc2)cc1 |  | 0.01 (≈ 0.0271 µM) |  | 0.0032 (≈ 0.00866 µM) |  |  |
| COC(=O)Cc1nc(-c2ccc(OC)cc2)c(-c2ccc(OC)cc2)s1 |  |  |  | 0.0001 (≈ 0.000271 µM) |  |  |
| COc1ccc(-c2nc(CC(N)=O)sc2-c2ccc(OC)cc2)cc1 | 96 |  | 100 | 0.0032 (≈ 0.00903 µM) | 39 |  |
| COc1ccc(-c2nc(C(F)(F)F)sc2-c2ccc(OC)cc2)cc1 [ITAZIGREL] | 100 | 0.01 (≈ 0.0274 µM) | 100 | 0.001 (≈ 0.00274 µM) | 83 | inhibition in vivo at 0.1 mg/kg (Cavia porcellus [5]): 6%; inhibition in vivo at 5 mg/kg (Cavia porcellus [6]): 68.5%; inhibition in vivo at 5 mg/kg (Cavia porcellus [7]): 97%; inhibition in vivo at 5 mg/kg (Cavia porcellus [8]): 10.3%; inhibition in vivo at 5 mg/kg (Cavia porcellus [9]): 48.7%; inhibition in vivo at 5 mg/kg (Cavia porcellus [10]): 93.2%; inhibition in vivo at 0.5 mg/kg (Cavia porcellus [11]): 68.5%; inhibition in vivo at 5 mg/kg (Cavia porcellus [12]): 16.2%; inhibition in vivo at 5 mg/kg (Cavia porcellus [13]): 0% |
| FC(F)(F)c1nc(-c2ccccc2)c(-c2ccccc2)s1 |  |  |  | 0.32 (≈ 1.05 µM) |  |  |
| COc1ccc(-c2nc(CCO)sc2-c2ccc(OC)cc2)cc1 | 79 | 0.0032 (≈ 0.00937 µM) | 100 | 0.00032 (≈ 0.000937 µM) | 9 |  |
| COc1ccc(-c2nc(C)sc2-c2ccc(OC)cc2)cc1 |  |  |  | 0.00032 (≈ 0.00103 µM) |  |  |
| COc1ccc(-c2nc(CC(=O)[O-])sc2-c2ccc(OC)cc2)cc1.[Li+] |  |  |  | 0.032 |  |  |
| CC(=O)Oc1ccccc1C(=O)O [ASPIRIN] |  |  |  | 10 (≈ 55.5 µM) |  |  |
